In data set [1] the test system is F. novicida. It counts as cell-based, F. tularensis subsp. novicida.
In another data set the test system is J774 cells. The data set is classed as cell-based, murine.
In data set [2] the test system is F. novicida. The arrangement: species or system F. tularensis subsp. novicida. The settings on record: in vivo.
Data set [3] relates to F. novicida. The arrangement: species or system F. tularensis subsp. novicida. Particulars: in vivo. The source holds these as a separate data set.
Data set [4] deals with F. novicida. The arrangement: species or system F. tularensis subsp. novicida. The settings on record: in vivo. The source holds these as a separate data set.
For data set [5] the following is noted: mouse, in vivo.
The conditions of data set [6]: cited from earlier work.

Where “and” joins values, the source holds several entries; their conditions need not be identical. Identical values can stand only once. Like-named read-outs stand apart in the source and are kept apart here.

Take IFN-γ: the “intracellular bacterial replication in macrophages” value in the data set with F. novicida [1] is listed as “markedly inhibited replication of bacteria”. For the same substance, in the data set on J774 cells, the TNF-α increase was 9 fold and 18 fold.

Turning to IL-12, in the data set on F. novicida [2], the “bacteria in the liver and spleen” value is on record as “marked reduction of bacteria”. In addition, in the data set with F. novicida [2], the “bacteria recovered from the spleens” value was “no bacteria recovered”. Moreover, in the data set with F. novicida [3], the time to death result was “significantly increased the time to death”. For the same substance, the “animals succumbed to the infection by day” value in the data set on F. novicida [4] is ≤ 6 days. Moreover, in the data set with F. novicida [1], the “intracellular bacterial replication in macrophages” value was “did not inhibit bacterial replication”. Moreover, in the data set with J774 cells, the “TNF-α detected (in words)” value is reported as “very little TNF-α”. Also, the figures for the toxicity entry in data set [5] and in data set [6] (in vivo) were “no toxicity observed” and “very little toxicity”, respectively. In addition, the “efficacy of route of delivery” value in data set [5] (ip) is recorded as “most efficacious”. In addition, in data set [6], the half-life in vivo entry is recorded as “longer sustainable half-life than IFN-γ”.

In the case of gentamicin, in the data set on F. novicida [4], the survival turned out to be 17% and the “survival / control of the disease (in words)” value is listed as “ineffective in controlling the disease”.
